Results taken from PubChem BioAssay (NCI).
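The compound was tested at five concentrations on cells cultured in 96-well plates, with a 48-hour exposure period. At the TGI there is no net growth.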

Assays:
Assay in all cases: growth of human tumour cells (NCI), 48 h
[1] = system: SF-295 CNS
[2] = system: OVCAR-3 ovarian
[3] = system: HCT-116 colon
[4] = system: UACC-62 melanoma
[5] = system: SF-539 CNS
[6] = system: SNB-75 CNS
[7] = system: TK-10 renal
[8] = system: RPMI-8226 leukemia
[9] = system: SK-OV-3 ovarian
[10] = system: 786-0 renal
[11] = system: MDA-N
[12] = system: LOX IMVI melanoma
[13] = system: K-562 leukemia
[14] = system: NCI/ADR-RES ovarian
[15] = system: COLO 205 colon
[16] = system: UO-31 renal
[17] = system: SK-MEL-2 melanoma
[18] = system: UACC-257 melanoma
[19] = system: SW-620 colon
[20] = system: SK-MEL-28 melanoma
[21] = system: SNB-19 CNS
[22] = system: A498 renal
[23] = system: OVCAR-5 ovarian
[24] = system: HCC-2998 colon
[25] = system: DU-145 prostate
[26] = system: HOP-62 NSCLC
[27] = system: HS 578T breast
[28] = system: SR leukemia
[29] = system: SF-268 CNS
[30] = system: HT29 colon
[31] = system: MALME-3M melanoma
[32] = system: A549 NSCLC
[33] = system: MDA-MB-231 breast
[34] = system: BT-549 breast
[35] = system: HCT-15 colon
[36] = system: M14 melanoma
[37] = system: IGROV1 ovarian
[38] = system: MCF7 breast
[39] = system: T-47D breast
[40] = system: ACHN renal
[41] = system: NCI-H226 lung
[42] = system: EKVX NSCLC
[43] = system: MOLT-4 leukemia
[44] = system: KM12 colon
[45] = system: OVCAR-4 ovarian
[46] = system: NCI-H460 lung
[47] = system: HL-60(TB) leukemia
[48] = system: CCRF-CEM leukemia
[49] = system: NCI-H23 lung
[50] = system: U251 CNS
[51] = system: PC-3 prostate
[52] = system: SK-MEL-5 melanoma
[53] = system: NCI-H522 lung
[54] = system: RXF 393 renal
[55] = system: SN12C renal
[56] = system: MDA-MB-435
[57] = system: OVCAR-8 ovarian
[58] = system: CAKI-1 renal
[59] = system: HOP-92 NSCLC

Structure (SMILES): CCN(/C=C1/C(=O)C(c2ccccc2)N(c2ccccc2)C1=O)CC (stereo unspecified)
- TGI [1]: > 10 µM
- TGI [2]: > 10 µM
- TGI [3]: > 10 µM
- TGI [4]: > 10 µM
- TGI [5]: > 10 µM
- TGI [6]: > 10 µM
- TGI [7]: > 10 µM
- TGI [8]: > 10 µM
- TGI [9]: > 10 µM
- TGI [10]: > 10 µM
- TGI [11]: > 10 µM
- TGI [12]: > 10 µM
- TGI [13]: > 10 µM
- TGI [14]: > 10 µM
- TGI [15]: > 10 µM
- TGI [16]: > 10 µM
- TGI [17]: > 10 µM
- TGI [18]: > 10 µM
- TGI [19]: > 10 µM
- TGI [20]: > 10 µM
- TGI [21]: > 10 µM
- TGI [22]: > 10 µM
- TGI [23]: > 10 µM
- TGI [24]: > 10 µM
- TGI [25]: > 10 µM
- TGI [26]: > 10 µM
- TGI [27]: > 10 µM
- TGI [28]: > 10 µM
- TGI [29]: > 10 µM
- TGI [30]: > 10 µM
- TGI [31]: > 10 µM
- TGI [32]: > 10 µM
- TGI [33]: > 10 µM
- TGI [34]: > 10 µM
- TGI [35]: > 10 µM
- TGI [36]: > 10 µM
- TGI [37]: > 10 µM
- TGI [38]: > 10 µM
- TGI [39]: > 10 µM
- TGI [40]: > 10 µM
- TGI [41]: > 10 µM
- TGI [42]: > 10 µM
- TGI [43]: > 10 µM
- TGI [44]: > 10 µM
- TGI [45]: > 10 µM
- TGI [46]: > 10 µM
- TGI [47]: > 10 µM
- TGI [48]: > 10 µM
- TGI [49]: > 10 µM
- TGI [50]: > 10 µM
- TGI [51]: > 10 µM
- TGI [52]: > 10 µM
- TGI [53]: > 10 µM
- TGI [54]: > 10 µM
- TGI [55]: > 10 µM
- TGI [56]: > 10 µM
- TGI [57]: > 10 µM
- TGI [58]: > 10 µM

Structure (SMILES): Cc1c(C)c2c(c(N)c1C#N)C(=O)N(Cc1ccc(S(N)(=O)=O)cc1)C2=O
- TGI [1]: > 56.6 µM
- TGI [2]: > 63.2 µM
- TGI [3]: > 92.5 µM
- TGI [4]: > 100 µM
- TGI [5]: > 60.1 µM
- TGI [6]: > 53.3 µM
- TGI [7]: 99.7 µM
- TGI [8]: > 100 µM
- TGI [9]: > 100 µM
- TGI [10]: > 56.5 µM
- TGI [11]: > 100 µM
- TGI [12]: > 100 µM
- TGI [13]: > 100 µM
- TGI [14]: > 100 µM
- TGI [15]: > 100 µM
- TGI [16]: > 100 µM
- TGI [17]: > 100 µM
- TGI [18]: > 100 µM
- TGI [19]: > 100 µM
- TGI [20]: > 100 µM
- TGI [21]: 38.7 µM
- TGI [22]: > 70.6 µM
- TGI [23]: > 87.9 µM
- TGI [24]: > 100 µM
- TGI [25]: > 75.8 µM
- TGI [26]: 19.3 µM
- TGI [27]: > 100 µM
- TGI [28]: > 100 µM
- TGI [29]: > 86.3 µM
- TGI [30]: > 100 µM
- TGI [31]: > 100 µM
- TGI [32]: > 100 µM
- TGI [33]: 73.4 µM
- TGI [34]: > 100 µM
- TGI [59]: > 44.6 µM
- TGI [35]: > 100 µM
- TGI [36]: > 73.6 µM
- TGI [37]: > 59.7 µM
- TGI [38]: > 100 µM
- TGI [39]: > 59.2 µM
- TGI [40]: > 63.4 µM
- TGI [41]: > 62.9 µM
- TGI [42]: > 100 µM
- TGI [43]: > 100 µM
- TGI [44]: > 100 µM
- TGI [45]: > 100 µM
- TGI [46]: > 100 µM
- TGI [47]: > 100 µM
- TGI [48]: > 100 µM
- TGI [49]: > 100 µM
- TGI [50]: > 80.6 µM
- TGI [51]: > 100 µM
- TGI [52]: > 100 µM
- TGI [54]: 39.3 µM
- TGI [55]: > 100 µM
- TGI [56]: > 100 µM
- TGI [57]: > 35.7 µM
- TGI [58]: > 100 µM
